# How the values were obtained:
# Type in all cases: in vivo
# [1] = test system: horseweed (Erigeron canadensis); experiment: Test A postemergence application, visual injury rating 0-100
# Procedure, shortened: (§1)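 Greenhouse test: loam/sand pots received a surfactant-containing formulation, as a preemergence directed soil spray or a postemergence spray on young plants. Injury was judged visually at day 10 relative to untreated controls.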
# [2] = test system: blackgrass (Alopecurus myosuroides); experiment: as above
# Procedure, shortened: as §1
# [3] = test system: kochia (Bassia scoparia); experiment: as above
# Procedure, shortened: as §1
# [4] = test system: soybean (Glycine max); experiment: as above
# Procedure, shortened: as §1
# [5] = test system: ragweed (common ragweed, Ambrosia artemisiifolia); experiment: as above
# Procedure, shortened: as §1
# [6] = test system: oat, wild (wild oat, Avena fatua); experiment: as above
# Procedure, shortened: as §1
# [7] = test system: ryegrass, Italian (italian ryegrass, Lolium multiflorum); experiment: as above
# Procedure, shortened: as §1
# [8] = test system: green foxtail (Setaria viridis); experiment: as above
# Procedure, shortened: as §1
# [9] = test system: galium (catchweed bedstraw, Galium aparine); experiment: as above; conditions: 62 g ai/ha, postemergence, 10 days, 0 = no effect, 100 = complete control
# Procedure, shortened: as §1
# [10] = test system: wheat (Triticum aestivum); experiment: as above
# Procedure, shortened: as §1
# [11] = test system: palmer (palmer amaranth, palmer pigweed, Amaranthus palmeri); experiment: as above
# Procedure, shortened: as §1
# [12] = test system: barnyardgrass (Echinochloa crus-galli); experiment: as above
# Procedure, shortened: as §1
# [13] = test system: corn (Zea mays); experiment: as above
# Procedure, shortened: as §1
# [14] = test system: rice (Oryza sativa); experiment: Test B flooded paddy test, visual plant response rating 0-100; conditions: 250 g ai/ha, Flood, applied to paddy water, evaluated after 13 days
# Procedure, shortened: (§2)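 Paddy-water application: test compounds went directly into water flooded 3 cm above the soil surface, with plants at 2 leaves. After a 13-day greenhouse period, responses were judged by eye relative to controls; a dash marks an untested entry.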
# [15] = test system: ducksalad (Heteranthera limosa); experiment: as above; conditions: 250 g ai/ha, Flood, applied to paddy water, evaluated after 13 days
# Procedure, shortened: as §2
# [16] = test system: sedge, umbrella (small-flower umbrella sedge, Cyperus difformis); experiment: as above; conditions: 250 g ai/ha, Flood, applied to paddy water, evaluated after 13 days
# Procedure, shortened: as §2
# [17] = test system: barnyardgrass (Echinochloa crusgalli); experiment: as above; conditions: 250 g ai/ha, Flood, applied to paddy water, evaluated after 13 days
# Procedure, shortened: as §2
# [18] = test system: blackgrass (Alopecurus myosuroides); experiment: Test A preemergence soil spray, visual injury rating 0-100; conditions: 10 days
# Procedure, shortened: as §1
# [19] = test system: kochia (Bassia scoparia); experiment: as above; conditions: 10 days
# Procedure, shortened: as §1
# [20] = test system: soybean (Glycine max); experiment: as above; conditions: 10 days
# Procedure, shortened: as §1
# [21] = test system: ragweed (common ragweed, Ambrosia artemisiifolia); experiment: as above; conditions: 10 days
# Procedure, shortened: as §1
# [22] = test system: oat, wild (wild oat, Avena fatua); experiment: as above; conditions: 10 days
# Procedure, shortened: as §1
# [23] = test system: ryegrass, Italian (italian ryegrass, Lolium multiflorum); experiment: as above; conditions: 10 days
# Procedure, shortened: as §1
# [24] = test system: green foxtail (Setaria viridis); experiment: as above; conditions: 10 days
# Procedure, shortened: as §1
# [25] = test system: wheat (Triticum aestivum); experiment: as above; conditions: 10 days
# Procedure, shortened: as §1
# [26] = test system: palmer (palmer amaranth, palmer pigweed, Amaranthus palmeri); experiment: as above; conditions: 10 days
# Procedure, shortened: as §1
# [27] = test system: barnyardgrass (Echinochloa crus-galli); experiment: as above; conditions: 10 days
# Procedure, shortened: as §1
# [28] = test system: corn (Zea mays); experiment: as above; conditions: 10 days
# Procedure, shortened: as §1
# [29] = 62 g ai/ha, postemergence, 10 days, 0 = no effect, 100 = complete control
# [30] = Postemergence, 16 g ai/ha, greenhouse 10 days, 0 no effect, 100 complete control
# [31] = 62 g ai/ha, 0 = no effect, 100 = complete control
smiles,measurement,setting,value
CC1(C(=O)NC2CC=C(C(=O)O)C2)CN(c2cc(F)cc(Cl)c2)C(=O)O1 (stereo not drawn) [Compound 160],Horseweed plant response rating (0-100),[1]; [29],0
same,Horseweed plant response rating (0 to 100 scale),[1]; [30],0
same,Blackgrass plant response rating (0-100),[2]; [29],0
same,Blackgrass plant response rating (0 to 100 scale),[2]; [30],0
same,Kochia plant response rating (0-100),[3]; [29],0
same,Kochia plant response rating (0 to 100 scale),[3]; [30],0
same,Soybean plant response rating (0-100),[4]; [29],0
same,Soybean plant response rating (0 to 100 scale),[4]; [30],0
same,Ragweed plant response rating (0-100),[5]; [29],0
same,Ragweed plant response rating (0 to 100 scale),[5]; [30],0
same,"Oat, Wild plant response rating (0-100)",[6]; [29],0
same,"Oat, Wild plant response rating (0 to 100 scale)",[6]; [30],0
same,"Ryegrass, Italian plant response rating (0-100)",[7]; [29],0
same,"Ryegrass, Italian plant response rating (0 to 100 scale)",[7]; [30],0
same,"Foxtail, Green plant response rating (0-100)",[8]; [29],0
same,"Foxtail, Green plant response rating (0 to 100 scale)",[8]; [30],0
same,Galium plant response rating (0-100),[9],0
same,Wheat plant response rating (0-100),[10]; [29],0
same,Wheat plant response rating (0 to 100 scale),[10]; [30],0
same,"Pigweed, Palmer plant response rating (0-100)",[11]; [29],0
same,"Pigweed, Palmer plant response rating (0 to 100 scale)",[11]; [30],0
same,Barnyardgrass plant response rating (0-100),[12]; [29],0
same,Barnyardgrass plant response rating (0 to 100 scale),[12]; [30],0
same,Corn plant response rating (0-100),[13]; [29],0
same,Corn plant response rating (0 to 100 scale),[13]; [30],0
same,"Plant response rating, Rice (0 to 100 scale, 0 is no effect and 100 is complete control)",[14],0
same,"Plant response rating, Ducksalad (0 to 100 scale, 0 is no effect and 100 is complete control)",[15],55
same,"Plant response rating, Sedge, Umbrella (0 to 100 scale, 0 is no effect and 100 is complete control)",[16],25
same,"Plant response rating, Barnyardgrass (0 to 100 scale, 0 is no effect and 100 is complete control)",[17],0
same,Blackgrass plant response rating,"[18]; 16 g ai/ha, 0 to 100 scale",0
same,Blackgrass plant response rating (0-100),[18]; [31],0
same,Kochia plant response rating,"[19]; 16 g ai/ha, 0 to 100 scale",0
same,Kochia plant response rating (0-100),[19]; [31],0
same,Soybean plant response rating,"[20]; 16 g ai/ha, 0 to 100 scale",0
same,Soybean plant response rating (0-100),[20]; [31],0
same,Ragweed plant response rating,"[21]; 16 g ai/ha, 0 to 100 scale",0
same,Ragweed plant response rating (0-100),[21]; [31],0
same,"Oat, Wild plant response rating","[22]; 16 g ai/ha, 0 to 100 scale",0
same,"Oat, Wild plant response rating (0-100)",[22]; [31],0
same,"Ryegrass, Italian plant response rating","[23]; 16 g ai/ha, 0 to 100 scale",0
same,"Ryegrass, Italian plant response rating (0-100)",[23]; [31],0
same,"Foxtail, Green plant response rating","[24]; 16 g ai/ha, 0 to 100 scale",0
same,"Foxtail, Green plant response rating (0-100)",[24]; [31],0
same,Wheat plant response rating,"[25]; 16 g ai/ha, 0 to 100 scale",0
same,Wheat plant response rating (0-100),[25]; [31],0
same,"Pigweed, Palmer plant response rating","[26]; 16 g ai/ha, 0 to 100 scale",0
same,"Pigweed, Palmer plant response rating (0-100)",[26]; [31],0
same,Barnyardgrass plant response rating,"[27]; 16 g ai/ha, 0 to 100 scale",0
same,Barnyardgrass plant response rating (0-100),[27]; [31],0
same,Corn plant response rating,"[28]; 16 g ai/ha, 0 to 100 scale",0
same,Corn plant response rating (0-100),[28]; [31],0

# — patent US20260285850A1, “SUBSTITUTED OXAZOLIDINONES AND IMIDAZOLINONES AS HERBICIDES” (FMC CORPORATION, priority 2023, published 2026)
